{
  "source": "patent US4803275A",
  "about": "“2-oxo-5-methyl-6-[4-heptene]-2H-pyrano[3,2-c]pyridine” (Takeda Chemical Industries, Ltd., priority 1986, dated 1989)",
  "key": {"[1]": {"system": "synthesis of fatty acid (rat liver homogenates)", "assay": "Inhibitory activity of the synthesis of fatty acid (rat liver homogenates, 1-14C-acetate)", "type": "biochemical, rat (SD-strain)", "conditions": "vs. no addition of the inhibiting agent, 37° C., 60 min", "description": "Determination of the Inhibitory activity of the synthesis of fatty acid was conducted by using homogenates prepared from rat livers. Preparation of the rat liver homogenates, composition of the reaction solution for determination of inhibitory activity and method of the determination were in accordance with the method by J. Iliffe et al. described on \"Biochemical Journal\" 91, 369 (1964) and the method by T. Kariya et al. described on \"Biochemical and Biophysical Research Communications\" 80, 1022 (1978). More specifically, SD-strain male rats (6-week old) had been fasted for 2 days and then refed for 24 hours. They were killed by blood letting. The livers were then removed immediately, to which was added a 0.25M sucrose solution containing 2 mM EDTA, 5 mM nicotinamide and 1 mM 2-mercaptoethanol so that the final volume of the solution may be 4 ml relative to 1 g of the wet weight of the livers. […]\nInto a 10 ml flask containing 1.85 ml of a reaction mixture consisting of 45 mM of tris-HCl buffer (pH 7.4), 10 mM of KHCO3, 4 mM of MgCl2, 45 mM of KCl, 5 mM of K2 HPO4, 15 mM of potassium citrate, 1 mM of NADP, 2 mM of ATP, 5 mM of glucose-6-phosphate, 0.4 mM of coenzyme A, 5 mM of dithiothreitol and 0.5 ml of the enzyle solution, was blown a mixture gas (95% O2 :5% CO2). […] The radio-activity extracted into the petroleum ether layer was measured."}, "[2]": {"system": "Escherichia coli K 12", "assay": "Antimicrobial activity", "type": "cell-based", "conditions": "K12, TSA medium containing 1% glucose, read-out: Minimum Inhibitory Concentration (MIC)"}, "[3]": {"system": "Proteus vulgaris IFO 3045", "assay": "Antimicrobial activity", "type": "cell-based", "conditions": "IFO3045, TSA medium containing 1% glucose, read-out: Minimum Inhibitory Concentration (MIC)"}, "[4]": {"system": "Pseudomonas aeruginosa IFO 3080", "assay": "Antimicrobial activity", "type": "cell-based", "conditions": "IFO3080, TSA medium containing 1% glucose, read-out: Minimum Inhibitory Concentration (MIC)"}, "[5]": {"system": "Staphylococcus aureus FDA 209 P", "assay": "Antimicrobial activity", "type": "cell-based", "conditions": "FDA209, TSA medium containing 1% glucose, read-out: Minimum Inhibitory Concentration (MIC)"}, "[6]": {"system": "Bacillus subtilis PCI 219", "assay": "Antimicrobial activity", "type": "cell-based", "conditions": "PCI219, TSA medium containing 1% glucose, read-out: Minimum Inhibitory Concentration (MIC)"}, "[7]": {"system": "Bacillus cereus IFO 3514", "assay": "Antimicrobial activity", "type": "cell-based", "conditions": "IFO3514, TSA medium containing 1% glucose, read-out: Minimum Inhibitory Concentration (MIC)"}, "[8]": {"system": "Candida albicans IFO 0583", "assay": "Antimicrobial activity", "type": "cell-based", "conditions": "IFO0583, TSA medium containing 1% glucose, read-out: Minimum Inhibitory Concentration (MIC)"}, "[9]": {"system": "Candida krusei IFO 1395", "assay": "Antimicrobial activity", "type": "cell-based", "conditions": "Pichia kudriavzevii, IFO1395, TSA medium containing 1% glucose, read-out: Minimum Inhibitory Concentration (MIC)"}, "[10]": {"system": "Candida parakrusei IFO 0640", "assay": "Antimicrobial activity", "type": "cell-based", "conditions": "IFO0640, TSA medium containing 1% glucose, read-out: Minimum Inhibitory Concentration (MIC)"}, "[11]": {"system": "Candida utilis IFO 0619", "assay": "Antimicrobial activity", "type": "cell-based", "conditions": "Williopsis jadinii, IFO0619, TSA medium containing 1% glucose, read-out: Minimum Inhibitory Concentration (MIC)"}, "[12]": {"system": "Candida parapsilosis IFO 1396", "assay": "Antimicrobial activity", "type": "cell-based", "conditions": "Lodderomyces parapsilosis, IFO1396, TSA medium containing 1% glucose, read-out: Minimum Inhibitory Concentration (MIC)"}, "[13]": {"system": "Candida tropicalis IFO 0006", "assay": "Antimicrobial activity", "type": "cell-based", "conditions": "IFO0006, TSA medium containing 1% glucose, read-out: Minimum Inhibitory Concentration (MIC)"}, "[14]": {"system": "Saccharomyces cerevisiae IFO 0209", "assay": "Antimicrobial activity", "type": "cell-based", "conditions": "IFO0209, TSA medium containing 1% glucose, read-out: Minimum Inhibitory Concentration (MIC)"}, "[15]": {"system": "Rhodotorula rubra IFO 0907", "assay": "Antimicrobial activity", "type": "cell-based", "conditions": "IFO0907, TSA medium containing 1% glucose, read-out: Minimum Inhibitory Concentration (MIC)"}, "[16]": {"system": "Cryptococcus neoformans IFO 0410", "assay": "Antimicrobial activity", "type": "cell-based", "conditions": "IFO0410, TSA medium containing 1% glucose, read-out: Minimum Inhibitory Concentration (MIC)"}, "[17]": {"system": "Penicillium chrysogenum IFO 4626", "assay": "Antimicrobial activity", "type": "cell-based", "conditions": "IFO4626, TSA medium containing 1% glucose, read-out: Minimum Inhibitory Concentration (MIC)"}, "[18]": {"system": "Aspergillus niger IFO 4066", "assay": "Antimicrobial activity", "type": "cell-based", "conditions": "IFO4066, TSA medium containing 1% glucose, read-out: Minimum Inhibitory Concentration (MIC)"}, "[19]": {"system": "Trichophyton mentagrophytes IFO 7522", "assay": "Antimicrobial activity", "type": "cell-based", "conditions": "IFO7522, TSA medium containing 1% glucose, read-out: Minimum Inhibitory Concentration (MIC)"}, "[20]": {"system": "Trichophyton rubrum IFO 5467", "assay": "Antimicrobial activity", "type": "cell-based", "conditions": "IFO5467, TSA medium containing 1% glucose, read-out: Minimum Inhibitory Concentration (MIC)"}, "[21]": {"system": "Pyricularia oryzae P-18", "assay": "microbe, parasite or virus in culture", "type": "cell-based", "conditions": "P18, read-out: Minimum Inhibitory Concentration (MIC)"}, "[22]": {"assay": "Acute toxicity, single intraperitoneal dose in mice", "conditions": "mouse, in vivo, ip"}, "[23]": {"assay": "Solubility", "type": "physicochemical"}},
  "data": [
    {"smiles": "CCC/C=C/CCC1Oc2cc[nH]c(=O)c2C=C1C", "note": "(stereo not drawn) [FA-4283]", "values": [
      {"measurement": "inhibitory activity of the synthesis of fatty acid", "setting": "[1]; 5×10^-4 M", "value": 97, "unit": "%"},
      {"measurement": "inhibition of the synthesis of fatty acid", "setting": "[1]; 10^-3 M", "value": 98, "unit": "%"},
      {"measurement": "MIC", "setting": "[2]", "value": "> 100", "unit": "µg/mL"},
      {"measurement": "MIC", "setting": "[3]", "value": "> 100", "unit": "µg/mL"},
      {"measurement": "MIC", "setting": "[4]", "value": "> 100", "unit": "µg/mL"},
      {"measurement": "MIC", "setting": "[5]", "value": "> 100", "unit": "µg/mL"},
      {"measurement": "MIC", "setting": "[6]", "value": "> 100", "unit": "µg/mL"},
      {"measurement": "MIC", "setting": "[7]", "value": "> 100", "unit": "µg/mL"},
      {"measurement": "MIC", "setting": "[8]", "value": 3.13, "unit": "µg/mL"},
      {"measurement": "MIC", "setting": "[9]", "value": "> 100", "unit": "µg/mL"},
      {"measurement": "MIC", "setting": "[10]", "value": "> 100", "unit": "µg/mL"},
      {"measurement": "MIC", "setting": "[11]", "value": 3.13, "unit": "µg/mL"},
      {"measurement": "MIC", "setting": "[12]", "value": "> 100", "unit": "µg/mL"},
      {"measurement": "MIC", "setting": "[13]", "value": 50, "unit": "µg/mL"},
      {"measurement": "MIC", "setting": "[14]", "value": "> 100", "unit": "µg/mL"},
      {"measurement": "MIC", "setting": "[15]", "value": 0.39, "unit": "µg/mL"},
      {"measurement": "MIC", "setting": "[16]", "value": 25, "unit": "µg/mL"},
      {"measurement": "MIC", "setting": "[17]", "value": "> 100", "unit": "µg/mL"},
      {"measurement": "MIC", "setting": "[18]", "value": "> 100", "unit": "µg/mL"},
      {"measurement": "MIC", "setting": "[19]", "value": 6.25, "unit": "µg/mL"},
      {"measurement": "MIC", "setting": "[20]", "value": 6.25, "unit": "µg/mL"},
      {"measurement": "MIC", "setting": "[21]", "value": 3.18, "unit": "µg/mL"},
      {"measurement": "LD50", "setting": "[22]", "value": "≥ 400", "unit": "mg/kg"},
      {"measurement": "Solubility", "setting": "[23]; chloroform", "value": "readily soluble"},
      {"measurement": "Solubility", "setting": "[23]; diethyl ether", "value": "soluble"},
      {"measurement": "Solubility", "setting": "[23]; dimethyl sulfoxide", "value": "readily soluble"},
      {"measurement": "Solubility", "setting": "[23]; dimethyl-formamide", "value": "readily soluble"},
      {"measurement": "Solubility", "setting": "[23]; ethanol", "value": "readily soluble"},
      {"measurement": "Solubility", "setting": "[23]; ethyl acetate", "value": "soluble"},
      {"measurement": "Solubility", "setting": "[23]; methanol", "value": "readily soluble"},
      {"measurement": "Solubility", "setting": "[23]; n-hexane", "value": "sparingly soluble"},
      {"measurement": "Solubility", "setting": "[23]; petroleum ether", "value": "sparingly soluble"},
      {"measurement": "Solubility", "setting": "[23]; water", "value": "insoluble"}
    ]}
  ]
}
